Results taken from patent US20250305055A1, “PROGNOSTIC/PREDICTIVE BREAST CANCER SIGNATURE” (priority 2021, published 2025).

Test system: breast cancer cell lines BT20, MDA-MB-231 and SUM-i 159
Assay: Drug response: breast cancer cell line proliferation inhibition
Type: cell-based
Settings: same dose as in the triple-drug combinations, BT20, MDA-MB-231, SUM-i 159, FIG. 9
Procedure: The breast cancer cell lines BT20, MDA-MB-231 and SUM-i 159 were treated with HDAC inhibitor (MS275), ISP inhibitor (17-AAG), mTOR inhibitor (Niclosamide), polo-like kinase inhibitor (1312536) and histone demethylase inhibitor (GSK-J4).

Compound	inhibition of breast cancer cell line proliferation, single treatment
CC[C@@H]1C(=O)N(C)c2cnc(Nc3ccc(C(=O)NC4CCN(C)CC4)cc3OC)nc2N1C1CCCC1 [compound 1312536]	ineffective
O=C(Nc1ccc([N+](=O)[O-])cc1Cl)c1cc(Cl)ccc1O [Niclosamide]	ineffective
Nc1ccccc1NC(=O)c1ccc(CNC(=O)OCc2cccnc2)cc1 [MS275, Entinostat]	ineffective
CCOC(=O)CCNc1cc(N2CCc3ccccc3CC2)nc(-c2ccccn2)n1 [GSK-J4]	ineffective
